The target of this test is human PDE10A2 (Homo sapiens (Human), UniProt Q9Y233). Briefly: PDE10 fluorescence polarization (IMAP FP) assay. It is filed as biochemical. Particulars: inhibition of FAM-labeled cAMP hydrolysis, apparent inhibition constant. How it is done: The activity of the compounds in accordance with the present invention as PDE10 inhibitors may be readily determined without undue experimentation using a fluorescence polarization (FP) methodology well known in the art (Huang, W., et al., J. Biomol Screen, 2002, 7: 215).
Sequence of human PDE10A2 (Q9Y233 267-1055): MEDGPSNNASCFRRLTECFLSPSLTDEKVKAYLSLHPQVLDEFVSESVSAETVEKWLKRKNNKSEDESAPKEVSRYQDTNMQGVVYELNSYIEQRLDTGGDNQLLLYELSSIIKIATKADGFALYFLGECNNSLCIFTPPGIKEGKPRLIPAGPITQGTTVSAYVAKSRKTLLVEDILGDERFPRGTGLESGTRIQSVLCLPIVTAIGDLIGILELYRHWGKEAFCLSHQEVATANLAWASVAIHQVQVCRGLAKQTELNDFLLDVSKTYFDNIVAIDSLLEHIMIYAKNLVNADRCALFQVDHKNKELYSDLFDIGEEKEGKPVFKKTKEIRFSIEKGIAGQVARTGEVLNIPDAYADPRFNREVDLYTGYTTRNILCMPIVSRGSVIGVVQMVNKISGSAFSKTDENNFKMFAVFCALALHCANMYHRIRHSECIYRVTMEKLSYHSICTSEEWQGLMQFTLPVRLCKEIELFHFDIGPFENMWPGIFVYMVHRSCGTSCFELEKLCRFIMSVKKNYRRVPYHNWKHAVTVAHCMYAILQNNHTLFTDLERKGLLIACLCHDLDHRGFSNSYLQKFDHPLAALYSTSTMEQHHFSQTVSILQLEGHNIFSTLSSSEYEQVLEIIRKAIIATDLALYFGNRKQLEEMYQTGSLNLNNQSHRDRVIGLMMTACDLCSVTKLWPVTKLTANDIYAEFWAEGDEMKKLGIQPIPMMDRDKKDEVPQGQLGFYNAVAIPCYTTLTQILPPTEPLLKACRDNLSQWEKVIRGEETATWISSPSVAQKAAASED
In a typical experiment the PDE10 inhibitory activity of the compounds of the present invention was determined in accordance with the following experimental method. PDE10A2 was amplified from human fetal brain cDNA (Clontech, Mountain View, Calif.) using a forward primer corresponding to nucleotides 56-77 of human PDE10A2 (Accession No. AF127480, Genbank Identifier 4894716), containing a Kozak consensus sequence, and a reverse primer Corresponding to nucleotides 2406-2413 of human PDE100A2 (Accession No. AF127480, Genbank Identifier 4894716). Amplification with Easy-A polymerase (Stratagene, La Jolla, Calif.) was 95° C. for 2 minutes followed by thirty three cycles of 95° C. for 40 seconds, 55° C. for 30 seconds, and 72° C. for 2 minutes 48 seconds. Final extension was 72° C. for 7 minutes. The PCR product was TA cloned into pcDNA3.2-TOPO (Invitrogen, Carlsbad, Calif.) according to standard protocol.
AD293 cells with 70-80% confluency were transiently transfected with human PDE10A2/pcDNA3.2-TOPO using Lipofectamine 2000 according to manufacturer specifications (Invitrogen, Carlsbad, Calif.). Cells were harvested 48 hours post-transfection and lysed by sonication (setting 3, 10×5 sec pulses) in a buffer containing 20 mM HEPES, 1 mM EDTA and protease inhibitor cocktail (Roche). Lysate was collected by centrifugation at 75,000×g for 20 minutes. Supernatant containing the cytoplasmic fraction was used for evaluation of PDE100A2 activity.
The fluorescence polarization assay for cyclic nucleotide phosphodiesterases was performed using an IMAP® FP kit supplied by Molecular Devices, Sunnyvale, Calif. (product #R8139). IMAP® technology has been applied previously to phosphodiesterase assays (Huang, W., et al., J. Biomol Screen, 2002, 7: 215). Assays were performed at room temperature in 384-well microtiter plates with an incubation volume of 20.2 μL. Solutions of test compounds were prepared in DMSO and serially diluted with DMSO to yield 8 μL of each of 10 solutions differing by 3-fold in concentration, at 32 serial dilutions per plate. 100% inhibition is determined using a known PDE10 inhibitor, which can be any compound that is present at 5,000 times its Ki value in the assay described as follows, such as papaverine (see Siuciak, et al. Neuropharmacology (2006) 51:386-396; Becker, et al. Behav Brain Res (2008) 186(2):155-60; Threlfell, et al., J Pharmacol Exp Ther (2009) 328(3):785-795), 2-{4-[pyridin-4-yl-1-(2,2,2-trifluoroethyl)-1H-pyrazol-3-yl]phenoxymethyl}quinoline succinic acid or 2-[4-(1-methyl-4-pyridin-4-yl-1H-pyrazol-3-yl)-phenoxymethyl]quinoline succinic acid (see Schmidt, et al. J Pharmacol Exp Ther (2008) 325:681-690; Threlfell, et al., J Pharmacol Exp Ther (2009) 328(3): 785-795). 0% of inhibition is determined by using DMSO (1% final concentrations).
A Labcyte Echo 555 (Labcyte, Sunnyvale, Calif.) is used to dispense […] from each well of the titration plate to the 384 well assay plate. A solution of enzyme (1/1600 dilution from aliquots; sufficient to produce 20% substrate conversion) and a separate solution of FAM-labeled cAMP PDE from Molecular Devices (product #R7506), at a final concentration of 50 nM are made in the assay buffer (10 mM Tris HCl, pH 7.2, 10 mM MgCl2, 0.05% NaN3 0.01% Tween-20, and 1 mM DTT). The enzyme and the substrate are then added to the assay plates in two consecutive additions of 10 μL, and then shaken to mix. The reaction is allowed to proceed at room temperature for 30 minutes. A binding solution is then made from the kit components, comprised of 80% Solution A, 20% Solution B and binding reagent at a volume of 1/600 the total binding solution. […]
As for `COc1ccc2c(=O)n(-c3cccc(C)c3)c(CCN3C(=O)c4cccc(OC)c4C3=O)nc2c1` [1-7, 4-methoxy-2-{2-[7-methoxy-3-(3-methylphenyl)-4-oxo-3,4-dihydroquinazolin-2-yl]ethyl}-1H-isoindole-1,3(2H)-dione], the Ki came out at 0.7 nM. On to `CC(C)Oc1cccc2c1C(=O)N(CCc1nc3ccccc3c(=O)n1-c1ccc(OCCF)cc1)C2=O` [1-12, 2-(2-{3-[4-(2-fluoroethoxy)phenyl]-4-oxo-3,4-dihydroquinazolin-2-yl}ethyl)-4-isopropoxy-1H-isoindole-1,3(2H)-dione], for which the Ki was 0.19 nM. Next, `COc1ccc(-n2c(CCNC(=O)Nc3ccccc3-c3ccccc3)nc3ccccc3c2=O)cc1` [1-10, N-biphenyl-2-yl-N′-{2-[3-(4-methoxyphenyl)-4-oxo-3,4-dihydroquinazolin-2-yl]ethyl}urea]: 48 nM; `COc1ccc(-n2c(CCN3C(=O)c4cccc(OC)c4C3=O)nc3ccccc3c2=O)cc1` [B-3, 4-methoxy-2-{2-[3-(4-methoxyphenyl)-4-oxo-3,4-dihydroquinazolin-2-yl]ethyl}-1H-isoindole-1,3(2H)-dione]: 2 nM. Next, `CC(C)Oc1cccc2c1C(=O)N(CCc1nc3ccccc3c(=O)n1C1CCCCC1)C2=O` [1-25, 2-[2-(3-cyclohexyl-4-oxo-3,4-dihyroquinazolin-2-yl)ethyl]-4-(propan-2-yloxy)-1H-isoindole-1,3(2H)-dione]: 11 nM; `COc1ccc(-n2c(CN3C(=O)c4ccccc4C3=O)nc3ccccc3c2=O)cc1` [1-17, 2-{[3-(4-methoxyphenyl)-4-oxo-3,4-dihydroquinazolin-2-yl]methyl}-1H-isoindole-1,3(2H)-dione]: 1900 nM; `COc1ccc(-n2c(CCN3C(=O)c4cccc(C)c4C3=O)nc3ccccc3c2=O)cc1` [1-4, 2-{2-[3-(4-methoxyphenyl)-4-oxo-3,4-dihydroquinazolin-2-yl]ethyl}-4-methyl-1H-isoindole-1,3(2H)-dione]: 61 nM.

In the case of `COc1ccc(-n2c(CCN3C(=O)c4cccc(OCC(F)(F)F)c4C3=O)nc3nc(C)ccc3c2=O)cc1` [1-22, 2-{2-[3-(4-methoxyphenyl)-7-methyl-4-oxo-3,4-dihydropyrido[2,3-d]pyrimidin-2-yl]ethyl}-4-(2,2,2-trifluoroethoxy)-1H-isoindole-1,3(2H)-dione], the Ki is 2.08 nM.

As to `COc1ccc(-n2c(CCc3cn(C(=O)OC(C)(C)C)c4ccccc34)nc3ccccc3c2=O)cc1` [1-9, tert-butyl 3-{2-[3-(4-methoxyphenyl)-4-oxo-3,4-dihydroquinazolin-2-yl]ethyl}-1H-indole-1-carboxylate], the Ki was 39 nM.

Take `COc1ccc(-n2c(CCNC(=O)c3ccccc3OC)nc3ccccc3c2=O)cc1` [F-1, 2-methoxy-N-{2-[3-(4-methoxyphenyl)-4-oxo-3,4-dihydroquinazolin-2-yl]ethyl}benzamide]: the Ki came to 140 nM. On to `Cc1ccc(-n2c(CCN3C(=O)c4ccccc4C3=O)nc3cc(Cl)ccc3c2=O)cc1` [1-3, 2-{2-[7-chloro-3-(4-methylphenyl)-4-oxo-3,4-dihydroquinazolin-2-yl]ethyl}-1H-isoindole-1,3(2H)-dione], for which the Ki amounted to 77 nM. Next, `COc1ccc2c(=O)n(-c3cccc(C)c3)c(CCN3C(=O)c4cccc(OC(C)C)c4C3=O)nc2c1` [1-14, 4-isopropoxy-2-{2-[7-methoxy-3-(3-methylphenyl)-4-oxo-3,4-dihydroquinazolin-2-yl]ethyl}-1H-isoindole-1,3(2H)-dione]: 0.077 nM; `CC(C)Oc1cccc2c1C(=O)N(CCc1nc3ccccc3c(=O)n1-c1ccc(OCc3ccccc3)cc1)C2=O` [D-5, 2-(2-{3-[4-(benzyloxy)phenyl]-4-oxo-3,4-dihydroquinazolin-2-yl}ethyl)-4-isopropoxy-1H-isoindole-1,3(2H)-dione]: 0.83 nM. The result for `Cc1ccc2c(=O)n(-c3ccc4cnn(C)c4c3)c(CCN3C(=O)c4cccc(OC(C)C)c4C3=O)nc2c1` [G-2, 2-{2-[7-methyl-3-(1-methyl-1H-indazol-6-yl)-4-oxo-3,4-dihydroquinazolin-2-yl]ethyl}-4-(propan-2-yloxy)-1H-isoindole-1,3(2H)-dione] reads 0.024 nM; that for `COc1ccc(-n2c(CCN3C(=O)c4cccc(OC5CCC5)c4C3=O)nc3ccccc3c2=O)cc1` [1-21, 4-(cyclobutyloxy)-2-{2-[3-(4-methoxyphenyl)-4-oxo-3,4-dihydroquinazolin-2-yl]ethyl}-1H-isoindole-1,3(2H)-dione], 1 nM. For the compound `COc1ccc(-n2c(CCN3C(=O)c4cccc(OC)c4C3=O)nc3cc(C)ccc3c2=O)cc1` [1-8, 4-methoxy-2-{2-[3-(4-methoxyphenyl)-7-methyl-4-oxo-3,4-dihydroquinazolin-2-yl]ethyl}-1H-isoindole-1,3(2H)-dione], the Ki came to 1.2 nM. Next, `CC(C)Oc1cccc2c1C(=O)N(CCc1nc3ncccc3c(=O)n1-c1ccc3cn[nH]c3c1)C2=O` [1-15, 2-{2-[3-(1H-indazol-6-yl)-4-oxo-3,4-dihydropyrido[2,3-d]pyrimidin-2-yl]ethyl}-4-isopropoxy-1H-isoindole-1,3(2H)-dione]: 0.48 nM; `COc1ccc(-n2c(CCN3C(=O)c4cccc(OC(C)C)c4C3=O)nc3nc(C)ccc3c2=O)cc1` [1-24, 2-{2-[3-(4-methoxyphenyl)-7-methyl-4-oxo-3,4-dihydropyrido[2,3-d]pyrimidin-2-yl]ethyl}-4-(propan-2-yloxy)-1H-isoindole-1,3(2H)-one]: 0.1 nM. Consider `COc1ccc(-n2c(CCN3C(=O)c4cccc(O)c4C3=O)nc3ccccc3c2=O)cc1` [B-2, 4-hydroxy-2-{2-[3-(4-methoxyphenyl)-4-oxo-3,4-dihydroquinazolin-2-yl]ethyl}-1H-isoindole-1,3(2H)-dione], for which the Ki was determined as 22 nM. The result for `COc1ccc(-n2c(CCN3C(=O)c4cccc(OC(C)C)c4C3=O)nc3ncccc3c2=O)cc1` [1-11, 4-isopropoxy-2-{2-[3-(4-methoxyphenyl)-4-oxo-3,4-dihydropyrido[2,3-d]pyrimidin-2-yl]ethyl}-1H-isoindole-1,3(2H)-dione] reads 0.56 nM; that for `COc1cccc2c1C(=O)N(CCc1nc3ccccc3c(=O)n1-c1ccc3cnn(C)c3c1)C2=O` [1-23, 4-methoxy-2-{2-[3-(1-methyl-1H-indazol-6-yl)-4-oxo-3,4-dihydroquinazolin-2-yl]ethyl}-1H-isoindole-1,3(2H)-dione], 0.95 nM. On to `COc1ccc(-n2c(CCCN3C(=O)c4ccccc4C3=O)nc3ccccc3c2=O)cc1` [1-18, 2-{3-[3-(4-methoxyphenyl)-4-oxo-3,4-dihydroquinazolin-2-yl]propyl}-1H-isoindole-1,3(2H)-dione], for which the Ki was 219 nM.

For `COc1ccc(-n2c(CCN3C(=O)c4cccc(C#N)c4C3=O)nc3ccccc3c2=O)cc1` [1-6, 2-{2-[3-(4-methoxyphenyl)-4-oxo-3,4-dihydroquinazolin-2-yl]ethyl}-1,3-dioxoisindoline-4-carbonitrile], the Ki was 33 nM. In the case of `O=C1c2ccccc2C(=O)N1CCc1nc2ccccc2c(=O)n1-c1cccc(-c2ccccc2)c1` [1-2, 2-[2-(3-biphenyl-3-yl-4-oxo-3,4-dihydroquinazolin-2-yl)ethyl]-1H-isoindole-1,3(2H)-dione], the Ki amounted to 14 nM.
